In ChEMBL document CHEMBL4507269, “Data for DCP probe BAY-386” (2021):

Key:
[1] = biological target: Serine/threonine-protein kinase D2 (Homo sapiens) (UniProt Q9BZL6); conditions: Compound concentration 1000.0 nM
[2] = biological target: Dual specificity protein kinase TTK (Homo sapiens) (UniProt P33981); conditions: Compound concentration 1000.0 nM
[3] = biological target: Protein kinase C iota type (Homo sapiens) (UniProt P41743); conditions: Compound concentration 1000.0 nM
[4] = biological target: T1, Muscarinic acetylcholine receptor M2 (Homo sapiens) (UniProt P08172); conditions: Compound concentration 10.0 uM
T1 sequence (whole entry): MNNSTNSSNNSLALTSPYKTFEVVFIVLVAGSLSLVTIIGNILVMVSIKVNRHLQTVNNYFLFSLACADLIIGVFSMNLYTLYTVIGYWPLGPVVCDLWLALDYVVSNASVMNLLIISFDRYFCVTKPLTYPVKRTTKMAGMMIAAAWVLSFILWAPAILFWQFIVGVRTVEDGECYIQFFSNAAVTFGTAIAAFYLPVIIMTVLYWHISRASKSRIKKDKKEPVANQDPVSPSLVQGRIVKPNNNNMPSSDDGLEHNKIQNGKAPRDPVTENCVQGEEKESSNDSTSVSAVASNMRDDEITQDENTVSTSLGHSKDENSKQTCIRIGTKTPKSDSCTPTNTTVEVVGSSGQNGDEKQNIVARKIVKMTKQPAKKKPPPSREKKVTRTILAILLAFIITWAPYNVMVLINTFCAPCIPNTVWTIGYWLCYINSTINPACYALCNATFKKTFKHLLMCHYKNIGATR

[5] = biological target: Ribosomal protein S6 kinase alpha-4 (Homo sapiens) (UniProt O75676); conditions: Compound concentration 1000.0 nM
Chain of Ribosomal protein S6 kinase alpha-4 (Homo sapiens) (O75676 whole entry, looked up): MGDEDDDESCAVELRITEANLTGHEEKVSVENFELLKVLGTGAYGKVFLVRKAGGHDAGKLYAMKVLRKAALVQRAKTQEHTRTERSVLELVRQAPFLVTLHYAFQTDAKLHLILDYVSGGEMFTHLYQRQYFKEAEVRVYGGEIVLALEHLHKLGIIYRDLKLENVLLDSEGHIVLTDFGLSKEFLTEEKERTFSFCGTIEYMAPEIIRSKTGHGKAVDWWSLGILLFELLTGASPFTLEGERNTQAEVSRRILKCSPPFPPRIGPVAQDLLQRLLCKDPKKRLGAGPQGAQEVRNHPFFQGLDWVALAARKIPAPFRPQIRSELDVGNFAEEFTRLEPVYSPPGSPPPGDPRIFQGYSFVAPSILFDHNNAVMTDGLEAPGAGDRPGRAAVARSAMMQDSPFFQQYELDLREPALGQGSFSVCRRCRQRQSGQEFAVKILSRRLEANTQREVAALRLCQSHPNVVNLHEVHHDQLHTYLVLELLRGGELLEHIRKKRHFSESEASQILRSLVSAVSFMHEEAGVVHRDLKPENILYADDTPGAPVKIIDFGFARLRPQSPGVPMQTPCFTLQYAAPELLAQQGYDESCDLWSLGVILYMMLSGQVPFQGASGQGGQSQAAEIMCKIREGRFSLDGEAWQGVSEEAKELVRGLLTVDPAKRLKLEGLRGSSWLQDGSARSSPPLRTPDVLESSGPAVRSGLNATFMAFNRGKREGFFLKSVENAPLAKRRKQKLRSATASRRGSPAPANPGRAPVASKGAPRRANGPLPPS

[6] = biological target: T2, 5-hydroxytryptamine receptor 1A (Homo sapiens) (UniProt P08908); conditions: Compound concentration 10.0 uM
T2 sequence (whole entry): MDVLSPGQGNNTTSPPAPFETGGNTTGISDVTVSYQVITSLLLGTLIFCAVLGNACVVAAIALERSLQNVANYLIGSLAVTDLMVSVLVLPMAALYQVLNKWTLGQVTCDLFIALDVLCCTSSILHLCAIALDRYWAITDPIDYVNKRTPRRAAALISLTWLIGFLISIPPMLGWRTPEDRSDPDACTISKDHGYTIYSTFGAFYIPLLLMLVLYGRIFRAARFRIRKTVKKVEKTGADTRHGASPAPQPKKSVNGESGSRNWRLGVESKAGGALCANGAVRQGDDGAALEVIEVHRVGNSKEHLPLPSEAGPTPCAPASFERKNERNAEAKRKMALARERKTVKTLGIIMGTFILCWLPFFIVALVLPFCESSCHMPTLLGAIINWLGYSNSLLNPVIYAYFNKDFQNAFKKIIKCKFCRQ

[7] = biological target: Ankyrin repeat and protein kinase domain-containing protein 1 (Homo sapiens) (UniProt Q8NFD2); conditions: Compound concentration 1000.0 nM
[8] = biological target: Mitogen-activated protein kinase kinase kinase 1 (Homo sapiens) (UniProt Q13233); conditions: Compound concentration 1000.0 nM
[9] = biological target: Homeodomain-interacting protein kinase 3 (Homo sapiens) (UniProt Q9H422); conditions: Compound concentration 1000.0 nM
[10] = biological target: Ephrin type-B receptor 1 (Homo sapiens) (UniProt P54762); conditions: Compound concentration 1000.0 nM
[11] = test system: Phosphatidylinositol 4,5-bisphosphate 3-kinase catalytic subunit alpha isoform (Homo sapiens), P42336 [C420R]; conditions: Compound concentration 1000.0 nM
Chain of Phosphatidylinositol 4,5-bisphosphate 3-kinase catalytic subunit alpha isoform (Homo sapiens), P42336 [C420R] (P42336 whole entry C420R, canonical isoform): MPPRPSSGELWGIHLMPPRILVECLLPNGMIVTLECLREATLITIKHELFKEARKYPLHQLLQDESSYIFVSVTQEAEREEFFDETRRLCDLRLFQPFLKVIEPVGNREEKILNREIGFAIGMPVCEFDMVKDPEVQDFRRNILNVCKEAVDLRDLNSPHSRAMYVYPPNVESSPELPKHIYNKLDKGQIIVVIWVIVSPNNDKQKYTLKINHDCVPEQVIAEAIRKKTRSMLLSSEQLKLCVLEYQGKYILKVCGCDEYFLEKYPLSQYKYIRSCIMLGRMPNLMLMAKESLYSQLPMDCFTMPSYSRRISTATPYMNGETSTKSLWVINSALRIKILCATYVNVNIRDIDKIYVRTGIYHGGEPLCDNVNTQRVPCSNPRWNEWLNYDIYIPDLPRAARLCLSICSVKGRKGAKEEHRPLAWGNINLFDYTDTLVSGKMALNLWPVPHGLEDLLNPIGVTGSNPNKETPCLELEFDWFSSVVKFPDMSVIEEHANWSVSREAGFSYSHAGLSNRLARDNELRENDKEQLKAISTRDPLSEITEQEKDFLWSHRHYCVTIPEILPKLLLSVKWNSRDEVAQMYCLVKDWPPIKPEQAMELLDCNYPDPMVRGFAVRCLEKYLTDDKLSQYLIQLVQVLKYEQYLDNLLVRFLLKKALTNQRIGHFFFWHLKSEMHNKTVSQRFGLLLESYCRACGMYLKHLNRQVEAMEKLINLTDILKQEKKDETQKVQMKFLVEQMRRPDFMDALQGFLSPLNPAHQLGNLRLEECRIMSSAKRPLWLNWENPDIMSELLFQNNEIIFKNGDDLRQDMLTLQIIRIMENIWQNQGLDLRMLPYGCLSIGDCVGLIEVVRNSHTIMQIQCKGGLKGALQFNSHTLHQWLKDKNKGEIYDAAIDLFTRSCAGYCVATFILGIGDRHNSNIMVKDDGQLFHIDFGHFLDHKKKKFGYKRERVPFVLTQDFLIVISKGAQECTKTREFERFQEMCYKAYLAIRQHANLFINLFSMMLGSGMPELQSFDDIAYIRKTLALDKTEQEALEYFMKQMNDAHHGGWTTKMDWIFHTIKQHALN

[12] = test system: Receptor-type tyrosine-protein kinase FLT3 (Homo sapiens), P36888 [UNDEFINED MUTATION]; conditions: Compound concentration 1000.0 nM
Chain of Receptor-type tyrosine-protein kinase FLT3 (Homo sapiens), P36888 [UNDEFINED MUTATION] (P36888 whole entry, looked up, change not shown, the tested form may be a part): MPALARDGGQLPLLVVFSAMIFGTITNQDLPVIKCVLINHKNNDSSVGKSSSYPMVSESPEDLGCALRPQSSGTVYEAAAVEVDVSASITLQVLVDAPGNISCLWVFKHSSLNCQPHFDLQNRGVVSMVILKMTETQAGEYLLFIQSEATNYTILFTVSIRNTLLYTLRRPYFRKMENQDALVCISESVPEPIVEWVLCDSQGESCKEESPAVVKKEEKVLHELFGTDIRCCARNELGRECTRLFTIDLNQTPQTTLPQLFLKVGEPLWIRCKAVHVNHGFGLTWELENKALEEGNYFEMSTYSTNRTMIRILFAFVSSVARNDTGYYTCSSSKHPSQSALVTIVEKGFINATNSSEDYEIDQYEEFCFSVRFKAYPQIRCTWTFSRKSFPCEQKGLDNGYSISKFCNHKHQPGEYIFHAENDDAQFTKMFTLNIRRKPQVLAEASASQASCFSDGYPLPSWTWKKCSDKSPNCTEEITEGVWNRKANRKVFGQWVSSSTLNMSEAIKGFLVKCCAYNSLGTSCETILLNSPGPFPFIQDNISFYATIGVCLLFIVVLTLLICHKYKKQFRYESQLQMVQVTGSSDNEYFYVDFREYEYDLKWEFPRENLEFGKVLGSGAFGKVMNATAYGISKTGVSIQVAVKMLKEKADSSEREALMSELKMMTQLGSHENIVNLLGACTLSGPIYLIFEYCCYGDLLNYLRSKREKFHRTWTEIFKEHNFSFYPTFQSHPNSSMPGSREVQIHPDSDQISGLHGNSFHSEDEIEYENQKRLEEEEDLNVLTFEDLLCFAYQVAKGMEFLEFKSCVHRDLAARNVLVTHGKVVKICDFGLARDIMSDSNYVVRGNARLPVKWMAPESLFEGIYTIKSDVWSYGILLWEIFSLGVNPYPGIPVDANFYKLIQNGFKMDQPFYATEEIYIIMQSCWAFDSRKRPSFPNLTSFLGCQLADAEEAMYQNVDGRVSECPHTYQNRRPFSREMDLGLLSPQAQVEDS

[13] = biological target: Epithelial discoidin domain-containing receptor 1 (Homo sapiens) (UniProt Q08345); conditions: Compound concentration 1000.0 nM
[14] = biological target: Tyrosine-protein kinase JAK1 (Homo sapiens) (UniProt P23458); conditions: Compound concentration 1000.0 nM
[15] = biological target: Beta-2 adrenergic receptor (Homo sapiens) (UniProt P07550); conditions: Compound concentration 10.0 uM
Chain of Beta-2 adrenergic receptor (Homo sapiens) (P07550 whole entry, looked up): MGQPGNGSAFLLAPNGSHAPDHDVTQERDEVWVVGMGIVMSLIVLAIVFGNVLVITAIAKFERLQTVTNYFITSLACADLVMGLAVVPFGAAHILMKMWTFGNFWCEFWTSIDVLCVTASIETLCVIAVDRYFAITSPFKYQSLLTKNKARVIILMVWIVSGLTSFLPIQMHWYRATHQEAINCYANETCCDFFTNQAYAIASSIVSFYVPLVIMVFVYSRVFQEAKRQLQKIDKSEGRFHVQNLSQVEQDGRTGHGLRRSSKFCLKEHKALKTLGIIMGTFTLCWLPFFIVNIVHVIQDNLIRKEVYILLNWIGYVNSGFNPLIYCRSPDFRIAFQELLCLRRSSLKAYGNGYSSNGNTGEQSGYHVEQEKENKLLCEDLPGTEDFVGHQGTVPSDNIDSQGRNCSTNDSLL

[16] = test system: Epidermal growth factor receptor (Homo sapiens), P00533 [L858R,T790M]; conditions: Compound concentration 1000.0 nM
[17] = biological target: Protein kinase C theta type (Homo sapiens) (UniProt Q04759); conditions: Compound concentration 1000.0 nM
Chain of Protein kinase C theta type (Homo sapiens) (Q04759 whole entry, looked up): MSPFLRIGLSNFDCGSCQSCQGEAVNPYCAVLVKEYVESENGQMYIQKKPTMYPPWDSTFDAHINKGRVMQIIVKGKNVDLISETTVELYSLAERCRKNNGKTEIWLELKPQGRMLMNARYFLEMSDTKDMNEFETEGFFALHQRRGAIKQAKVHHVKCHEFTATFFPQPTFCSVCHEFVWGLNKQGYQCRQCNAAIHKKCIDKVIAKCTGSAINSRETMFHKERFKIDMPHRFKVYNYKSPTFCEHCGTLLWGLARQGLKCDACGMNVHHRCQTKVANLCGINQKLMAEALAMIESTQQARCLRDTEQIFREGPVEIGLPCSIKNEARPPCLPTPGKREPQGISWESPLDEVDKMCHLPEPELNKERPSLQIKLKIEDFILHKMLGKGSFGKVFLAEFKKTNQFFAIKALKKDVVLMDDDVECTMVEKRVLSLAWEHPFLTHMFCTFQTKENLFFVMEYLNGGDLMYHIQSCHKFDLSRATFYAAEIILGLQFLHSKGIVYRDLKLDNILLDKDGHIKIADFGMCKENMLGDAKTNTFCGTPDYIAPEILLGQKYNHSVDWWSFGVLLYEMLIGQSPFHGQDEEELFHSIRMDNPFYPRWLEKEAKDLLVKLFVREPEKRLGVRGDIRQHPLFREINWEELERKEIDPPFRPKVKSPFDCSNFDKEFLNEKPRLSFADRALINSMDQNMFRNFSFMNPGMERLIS

[18] = biological target: Serine/threonine-protein kinase NIM1 (Homo sapiens) (UniProt Q8IY84); conditions: Compound concentration 1000.0 nM
[19] = test system: ALK tyrosine kinase receptor (Homo sapiens), Q9UM73 [C1156Y]; conditions: Compound concentration 1000.0 nM
[20] = test system: Tyrosine-protein kinase ABL1 (Homo sapiens), P00519 [Q252H]; conditions: Compound concentration 1000.0 nM
[21] = biological target: SRSF protein kinase 3 (Homo sapiens) (UniProt Q9UPE1); conditions: Compound concentration 1000.0 nM
[22] = biological target: Aurora kinase A (Homo sapiens) (UniProt O14965); conditions: Compound concentration 1000.0 nM
Chain of Aurora kinase A (Homo sapiens) (O14965 whole entry): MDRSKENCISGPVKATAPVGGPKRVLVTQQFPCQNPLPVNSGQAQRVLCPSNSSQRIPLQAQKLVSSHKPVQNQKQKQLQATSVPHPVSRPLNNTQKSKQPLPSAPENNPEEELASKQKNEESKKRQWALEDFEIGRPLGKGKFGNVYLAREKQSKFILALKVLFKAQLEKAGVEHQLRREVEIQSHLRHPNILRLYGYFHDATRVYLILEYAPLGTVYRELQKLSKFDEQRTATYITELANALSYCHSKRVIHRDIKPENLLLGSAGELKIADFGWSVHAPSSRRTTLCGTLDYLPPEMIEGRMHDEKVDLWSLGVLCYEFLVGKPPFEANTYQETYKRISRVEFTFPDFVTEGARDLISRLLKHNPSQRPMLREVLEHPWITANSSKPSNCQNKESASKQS

[23] = biological target: BDNF/NT-3 growth factors receptor (Homo sapiens) (UniProt Q16620); conditions: Compound concentration 1000.0 nM
[24] = biological target: Alpha-2B adrenergic receptor (Homo sapiens) (UniProt P18089); conditions: Compound concentration 10.0 uM
[25] = biological target: Melanocortin receptor 4 (Homo sapiens) (UniProt P32245); test: MC4 (h) Eurofins-Cerep Cellular and Nuclear Receptor Functional Assays; conditions: Compound concentration 10.0 uM
Chain of Melanocortin receptor 4 (Homo sapiens) (P32245 whole entry, canonical isoform): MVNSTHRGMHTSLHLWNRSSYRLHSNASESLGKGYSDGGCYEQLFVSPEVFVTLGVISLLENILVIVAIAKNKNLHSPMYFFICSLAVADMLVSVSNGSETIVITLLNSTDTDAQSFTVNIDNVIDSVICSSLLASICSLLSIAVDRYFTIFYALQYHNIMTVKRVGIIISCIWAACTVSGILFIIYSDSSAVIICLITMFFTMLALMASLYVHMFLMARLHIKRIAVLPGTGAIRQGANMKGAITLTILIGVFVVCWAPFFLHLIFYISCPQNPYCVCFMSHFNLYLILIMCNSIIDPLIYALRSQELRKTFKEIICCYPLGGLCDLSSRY

[26] = biological target: Casein kinase I isoform gamma-2 (Homo sapiens) (UniProt P78368); conditions: Compound concentration 1000.0 nM
[27] = biological target: Cyclin-dependent kinase 4 (Homo sapiens) (UniProt P11802); conditions: Compound concentration 1000.0 nM
Chain of Cyclin-dependent kinase 4 (Homo sapiens) (P11802 whole entry): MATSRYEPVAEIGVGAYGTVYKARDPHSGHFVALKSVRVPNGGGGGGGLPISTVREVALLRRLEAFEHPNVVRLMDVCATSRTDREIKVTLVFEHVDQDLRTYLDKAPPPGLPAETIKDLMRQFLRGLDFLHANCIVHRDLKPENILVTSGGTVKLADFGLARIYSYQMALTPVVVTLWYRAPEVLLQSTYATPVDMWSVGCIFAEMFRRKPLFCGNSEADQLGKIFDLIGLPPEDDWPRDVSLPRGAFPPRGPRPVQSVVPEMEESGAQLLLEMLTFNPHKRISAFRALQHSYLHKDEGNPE

[28] = biological target: Ribosomal protein S6 kinase alpha-1 (Homo sapiens) (UniProt Q15418); conditions: Compound concentration 1000.0 nM
[29] = biological target: RAC-beta serine/threonine-protein kinase (Homo sapiens) (UniProt P31751); conditions: Compound concentration 1000.0 nM
[30] = biological target: Tyrosine-protein kinase ITK/TSK (Homo sapiens) (UniProt Q08881); conditions: Compound concentration 1000.0 nM
[31] = biological target: Interleukin-1 receptor-associated kinase 4 (Homo sapiens) (UniProt Q9NWZ3); conditions: Compound concentration 1000.0 nM
[32] = biological target: Serine/threonine-protein kinase ULK3 (Homo sapiens) (UniProt Q6PHR2); conditions: Compound concentration 1000.0 nM
[33] = biological target: Tyrosine-protein kinase Fgr (Homo sapiens) (UniProt P09769); conditions: Compound concentration 1000.0 nM

Structure (SMILES)	residual activity [1]	residual activity [2]	residual activity [3]	inhibition [4]	residual activity [5]	inhibition [6]	residual activity [7]	residual activity [8]	residual activity [9]	residual activity [10]	residual activity [11]	residual activity [12]	residual activity [13]	residual activity [14]	inhibition [15]	residual activity [16]	residual activity [17]	residual activity [18]	residual activity [19]	residual activity [20]	also measured
O=C(N1CCS(=O)(=O)CC1)N1C[C@H](c2ccc(OC(F)(F)F)cc2)C[C@H](c2nc(C3CC3)no2)C1 [BAY-386]	100%	82%	100%	-9.14%	100%	14.7%	100%	100%	100%	100%	100%	100%	100%	100%	11.8%	59%	86%	93%	79%	100%	residual activity [21]: 100%; residual activity [22]: 100%; residual activity [23]: 94%; inhibition [24]: 2.41%; % Inhibition of Control Agonist Response (Mean n=2) [25]: -8.1%; % of Control Agonist Response (Mean n=2) [25]: -1.2%; residual activity [26]: 89%; residual activity [27]: 88%; residual activity [28]: 100%; residual activity [29]: 90%; residual activity [30]: 100%; residual activity [31]: 80%; residual activity [32]: 93%; residual activity [33]: 100%
Cc1noc([C@H]2C[C@@H](c3ccc(C(F)(F)F)cc3)CN(C(=O)N3CCS(=O)(=O)C3)C2)n1 [BAY-448]	100%	100%	100%	39.5%	100%	-4.52%	100%	100%	96%	100%	84%	100%	100%	74%	24%	96%	87%	100%	100%	100%	residual activity [21]: 100%; residual activity [22]: 85%; residual activity [23]: 83%; inhibition [24]: -2.77%; % Inhibition of Control Agonist Response (Mean n=2) [25]: 14.3%; % of Control Agonist Response (Mean n=2) [25]: -1.8%; residual activity [26]: 100%; residual activity [27]: 100%; residual activity [28]: 100%; residual activity [29]: 96%; residual activity [30]: 100%; residual activity [31]: 83%; residual activity [32]: 77%; residual activity [33]: 100%
